Test results as given in patent publication US20070099996A1, “Pharmaceutical compositions of acitretin” (priority 2003, published 2007).

Experiments:
[1] = cited from earlier work
[2] = Comparative particle size distribution; format: physicochemical
Description: Comparative particle size distribution of unmilled acitretin, air-jet milled acitretin, oil-milled and wet milled solid dispersion of acitretin.

Question: With `COc1cc(C)c(/C=C/C(C)=C/C=C/C(C)=C/C(=O)O)c(C)c1C` [Acitretin] as the molecule, how does the Solubility in water [1] read?
Answer: The Solubility in water was “practically insoluble”.

Question: What does the source list for `COc1cc(C)c(/C=C/C(C)=C/C=C/C(C)=C/C(=O)O)c(C)c1C` [Air-jet milled acitretin, acitretin]?
Answer: Particle size D10 [2]: 2.13 microns; Particle size D50 [2]: 5.51 microns; Particle size D90 [2]: 14.48 microns

Question: What does the source list for `COc1cc(C)c(/C=C/C(C)=C/C=C/C(C)=C/C(=O)O)c(C)c1C` [Unmilled acitretin, acitretin]?
Answer: Particle size D10 [2]: 11.14 microns; Particle size D50 [2]: 39.59 microns; Particle size D90 [2]: 105.0 microns
